# Results from ChEMBL document CHEMBL1201862, “PubChem BioAssay data set” (2004).
# Calls of active or inactive are those of the source.
# Columns and labels:
# [1] = target: Glyceraldehyde-3-phosphate dehydrogenase (Homo sapiens, UniProt P04406)
# Bcl-2-related protein A1 [2] = target: T1, Bcl-2-related protein A1 (Mus musculus, UniProt Q07440); experiment: small-molecule antagonists of Bfl-1/BH3 interaction – biochemical, TR-FRET, mouse Bfl-1, confirmation (AID 621);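 note: TR-FRET binding of GST-Bfl-1 to FITC-labelled Bid peptide via terbium antibody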
# T1 sequence (Q07440 whole entry): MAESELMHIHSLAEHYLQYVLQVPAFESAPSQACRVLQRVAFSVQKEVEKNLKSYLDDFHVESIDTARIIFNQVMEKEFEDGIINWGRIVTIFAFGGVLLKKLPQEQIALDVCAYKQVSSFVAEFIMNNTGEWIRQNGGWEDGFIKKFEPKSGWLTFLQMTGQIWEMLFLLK
# Bcl-2-related protein A1 [3] = target: T1, Bcl-2-related protein A1; experiment: Bfl-1 binding inhibitors, SAR follow-up, biochemical, fluorescence polarization (AID 1070)
# [4] = target: Solute carrier family 12 member 2/member 5 (Homo sapiens, UniProt P55011+Q9H2X9); experiment: KCC2 and NKCC1 inhibition by rubidium flux, cell-based, NKCC1 counter-screen (AID 1734); format: functional, HEK293
# [5] = target: Bifunctional protein GlmU (Mycobacterium tuberculosis, UniProt P9WMN3); experiment: Inhibitors of Mycobacterial Glucosamine-1-phosphate acetyl transferase (GlmU). Secondary screen.; set-up: species or system Mycobacterium tuberculosis H37Rv
# Sequence of Bifunctional protein GlmU (P9WMN3 whole entry, the tested form may be a part): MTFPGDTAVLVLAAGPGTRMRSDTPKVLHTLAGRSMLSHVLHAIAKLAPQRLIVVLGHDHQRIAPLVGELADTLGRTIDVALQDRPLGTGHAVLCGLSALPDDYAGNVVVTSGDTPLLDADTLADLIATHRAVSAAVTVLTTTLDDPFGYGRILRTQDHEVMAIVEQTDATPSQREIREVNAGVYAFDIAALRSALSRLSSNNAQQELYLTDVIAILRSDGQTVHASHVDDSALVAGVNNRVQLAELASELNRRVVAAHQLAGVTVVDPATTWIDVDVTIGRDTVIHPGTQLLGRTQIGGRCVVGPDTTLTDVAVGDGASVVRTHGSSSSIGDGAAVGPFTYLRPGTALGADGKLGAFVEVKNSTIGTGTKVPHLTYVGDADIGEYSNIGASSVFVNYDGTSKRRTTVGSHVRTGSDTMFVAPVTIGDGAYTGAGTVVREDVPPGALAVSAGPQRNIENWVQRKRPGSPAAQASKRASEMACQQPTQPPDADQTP
# [6] = target: T2, Carboxy-terminal domain RNA polymerase II polypeptide A small phosphatase 1 (Homo sapiens, UniProt Q9GZU7); experiment: CTDSP1 inhibitors, concentration-response, biochemical, absorbance readout, ultra-high-throughput screen actives (AID 540297); format: functional
# T2 sequence (Q9GZU7 whole entry): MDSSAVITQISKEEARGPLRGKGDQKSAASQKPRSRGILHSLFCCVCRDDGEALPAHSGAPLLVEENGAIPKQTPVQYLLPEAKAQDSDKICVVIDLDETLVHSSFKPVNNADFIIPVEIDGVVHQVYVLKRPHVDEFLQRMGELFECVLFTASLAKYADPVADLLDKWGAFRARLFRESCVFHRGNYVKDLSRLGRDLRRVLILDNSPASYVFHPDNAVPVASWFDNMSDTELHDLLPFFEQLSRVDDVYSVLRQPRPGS
# [7] = target: Tyrosine-protein phosphatase non-receptor type 11 (Homo sapiens, UniProt Q06124); experiment: PTPN11 enzyme inhibitors – biochemical, selectivity assay for STEP inhibitor project, dose response (AID 602367); format: functional; conditions: read-out: IC50_Mean
# Sequence of Tyrosine-protein phosphatase non-receptor type 11 (Q06124 whole entry): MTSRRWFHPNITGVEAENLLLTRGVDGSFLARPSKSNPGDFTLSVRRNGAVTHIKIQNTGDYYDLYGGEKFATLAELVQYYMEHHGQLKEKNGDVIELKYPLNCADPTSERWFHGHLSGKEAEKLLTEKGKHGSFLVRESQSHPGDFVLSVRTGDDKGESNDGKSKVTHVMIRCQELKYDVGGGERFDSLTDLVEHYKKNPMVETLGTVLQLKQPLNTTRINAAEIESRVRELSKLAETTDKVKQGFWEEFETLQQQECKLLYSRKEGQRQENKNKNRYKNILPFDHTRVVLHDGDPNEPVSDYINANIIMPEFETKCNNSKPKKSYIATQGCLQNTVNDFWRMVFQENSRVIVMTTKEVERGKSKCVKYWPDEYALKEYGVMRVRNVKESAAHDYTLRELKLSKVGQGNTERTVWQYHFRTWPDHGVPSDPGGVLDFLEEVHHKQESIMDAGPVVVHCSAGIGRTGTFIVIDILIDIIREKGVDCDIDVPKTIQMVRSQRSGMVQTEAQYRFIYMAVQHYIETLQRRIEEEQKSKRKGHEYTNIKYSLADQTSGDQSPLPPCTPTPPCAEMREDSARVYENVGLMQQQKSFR
# [8] = target: Tyrosine-protein phosphatase non-receptor type 5 (Homo sapiens, UniProt P54829); experiment: PTPN5 enzyme inhibition – biochemical, fluorescence intensity, uHTS hits, confirmation (AID 602372); format: functional; conditions: read-out: IC50_Mean
# [9] = target: Dual specificity protein phosphatase 3 (Homo sapiens, UniProt P51452); experiment: VHR phosphatase inhibition, dose response, selectivity assay for STEP inhibitor project, biochemical (AID 602374); format: functional; conditions: read-out: IC50_Mean
# Sequence of Dual specificity protein phosphatase 3 (P51452 whole entry): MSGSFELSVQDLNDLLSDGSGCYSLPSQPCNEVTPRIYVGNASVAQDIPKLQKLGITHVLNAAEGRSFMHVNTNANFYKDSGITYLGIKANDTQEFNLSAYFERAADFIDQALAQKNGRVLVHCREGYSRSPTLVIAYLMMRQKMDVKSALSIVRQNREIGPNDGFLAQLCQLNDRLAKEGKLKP
# [10] = target: T3, Tyrosine-protein phosphatase non-receptor type 22 (Homo sapiens, UniProt Q9Y2R2); experiment: lymphoid phosphatase LYP inhibitors – biochemical, selectivity assay for STEP inhibitor project, dose response (AID 624241); format: functional
# T3 sequence (Q9Y2R2 whole entry): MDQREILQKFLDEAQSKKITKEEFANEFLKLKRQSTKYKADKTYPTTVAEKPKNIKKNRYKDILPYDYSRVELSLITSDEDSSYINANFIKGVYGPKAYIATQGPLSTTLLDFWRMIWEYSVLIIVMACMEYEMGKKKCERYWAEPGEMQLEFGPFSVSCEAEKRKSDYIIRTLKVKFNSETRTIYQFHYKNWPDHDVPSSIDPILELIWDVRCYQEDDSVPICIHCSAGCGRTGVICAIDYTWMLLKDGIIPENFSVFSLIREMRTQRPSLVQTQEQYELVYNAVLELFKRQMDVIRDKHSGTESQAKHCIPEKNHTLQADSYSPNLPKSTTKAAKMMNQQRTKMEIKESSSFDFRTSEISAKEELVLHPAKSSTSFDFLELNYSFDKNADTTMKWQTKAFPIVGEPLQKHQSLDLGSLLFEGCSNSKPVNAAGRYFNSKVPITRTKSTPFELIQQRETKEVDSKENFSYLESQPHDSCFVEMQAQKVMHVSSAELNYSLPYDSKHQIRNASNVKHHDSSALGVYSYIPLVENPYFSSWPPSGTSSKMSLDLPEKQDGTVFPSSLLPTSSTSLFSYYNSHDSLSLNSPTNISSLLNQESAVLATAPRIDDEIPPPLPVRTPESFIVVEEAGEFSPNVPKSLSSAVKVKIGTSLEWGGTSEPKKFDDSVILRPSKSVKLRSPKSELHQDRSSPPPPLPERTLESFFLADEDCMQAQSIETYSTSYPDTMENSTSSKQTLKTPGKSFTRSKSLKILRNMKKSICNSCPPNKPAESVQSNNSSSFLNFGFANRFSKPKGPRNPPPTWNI
# Protein Tat = Protein Tat (Human immunodeficiency virus type 1 group M subtype B (isolate HXB2)(HIV-1), UniProt P04608); format: functional;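 note: tat binding to TAR RNA read out by fluorescence polarization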
# Sequence of Protein Tat (P04608 whole entry): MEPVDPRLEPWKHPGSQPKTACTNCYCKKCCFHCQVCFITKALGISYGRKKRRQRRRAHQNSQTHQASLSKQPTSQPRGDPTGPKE
# [11] = target: T4, Induced myeloid leukemia cell differentiation protein Mcl-1 (Homo sapiens, UniProt Q07820); experiment: blockers of MCL1 binding to BIM peptide – biochemical, fluorescence polarization, BIM-BH3 peptide, 1536-well, dose response (AID 2217)
# T4 sequence (Q07820 whole entry): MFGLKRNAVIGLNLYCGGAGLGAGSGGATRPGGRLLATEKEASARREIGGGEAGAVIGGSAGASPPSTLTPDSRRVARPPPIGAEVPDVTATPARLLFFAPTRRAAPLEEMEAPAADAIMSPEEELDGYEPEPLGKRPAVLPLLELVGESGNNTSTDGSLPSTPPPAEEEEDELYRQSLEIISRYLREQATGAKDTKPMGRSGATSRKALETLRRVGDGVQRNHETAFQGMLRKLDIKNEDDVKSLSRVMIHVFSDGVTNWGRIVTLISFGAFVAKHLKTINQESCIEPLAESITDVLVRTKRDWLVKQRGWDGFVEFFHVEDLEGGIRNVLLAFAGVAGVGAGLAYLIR
# Bcl-2-like protein 1 = Bcl-2-like protein 1 (Homo sapiens, UniProt Q07817); experiment: blockers of BCLXL peptide binding – biochemical, fluorescence polarization, 1536-well, selectivity assay for MCL1 inhibitor project, dose response (AID 2218)
# Sequence of Bcl-2-like protein 1 (Q07817 whole entry): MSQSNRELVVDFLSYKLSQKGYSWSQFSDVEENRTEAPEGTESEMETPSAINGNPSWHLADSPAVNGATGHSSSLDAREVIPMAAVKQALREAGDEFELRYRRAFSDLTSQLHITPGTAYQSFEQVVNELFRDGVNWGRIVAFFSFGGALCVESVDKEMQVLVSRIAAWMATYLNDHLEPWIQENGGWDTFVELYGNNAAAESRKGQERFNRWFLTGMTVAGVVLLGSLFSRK
# [12] = target: T4, Induced myeloid leukemia cell differentiation protein Mcl-1; format: functional
# Vero = experiment: Vero cell viability after compound exposure – synthesized analogs, set II, cytotoxicity control for West Nile virus antiviral project, SAR follow-up (AID 2402); format: functional; conditions: Chlorocebus sabaeus
# [13] = target: T5, Tyrosine-protein phosphatase non-receptor type 7 (Homo sapiens, UniProt P35236); experiment: HePTP tyrosine phosphatase activity blockers – biochemical, absorbance, leukemia target, primary screen (AID 521); format: functional
# T5 sequence (P35236 whole entry): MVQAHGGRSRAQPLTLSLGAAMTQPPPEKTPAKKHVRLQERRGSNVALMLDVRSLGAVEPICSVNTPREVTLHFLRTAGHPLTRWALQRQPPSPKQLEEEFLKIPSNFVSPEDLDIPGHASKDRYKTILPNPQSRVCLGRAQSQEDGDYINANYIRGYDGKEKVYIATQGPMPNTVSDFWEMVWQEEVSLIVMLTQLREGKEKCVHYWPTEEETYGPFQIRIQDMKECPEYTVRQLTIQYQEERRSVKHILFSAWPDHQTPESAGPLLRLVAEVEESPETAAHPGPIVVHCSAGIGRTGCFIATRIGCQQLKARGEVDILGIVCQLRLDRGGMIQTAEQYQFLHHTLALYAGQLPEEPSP
# Cytochrome P450 2C19 = Cytochrome P450 2C19 (Homo sapiens, UniProt P33261); experiment: qHTS Assay for Inhibitors and Substrates of Cytochrome P450 2C19. [Related pubchem assays: 410 ]; format: ADME; conditions: read-out: Potency
# Cytochrome P450 2C9 = Cytochrome P450 2C9 (Homo sapiens, UniProt P11712); conditions: Potency
# [14] = target: Inward rectifier potassium channel 2 (Mus musculus, UniProt P35561); experiment: Manual electrophysiological patch clamp assay for SAR compounds that inhibit/block inward-rectifying potassium ion channel Kir2.1. [Related pubchem assays: 1843 (Summary assay for Kir2.1 inhibitor assays.), 1672 (Primary HTS of 305616 compounds where 2592 were identified as active.)]; format: functional
# Sequence of Inward rectifier potassium channel 2 (P35561 whole entry): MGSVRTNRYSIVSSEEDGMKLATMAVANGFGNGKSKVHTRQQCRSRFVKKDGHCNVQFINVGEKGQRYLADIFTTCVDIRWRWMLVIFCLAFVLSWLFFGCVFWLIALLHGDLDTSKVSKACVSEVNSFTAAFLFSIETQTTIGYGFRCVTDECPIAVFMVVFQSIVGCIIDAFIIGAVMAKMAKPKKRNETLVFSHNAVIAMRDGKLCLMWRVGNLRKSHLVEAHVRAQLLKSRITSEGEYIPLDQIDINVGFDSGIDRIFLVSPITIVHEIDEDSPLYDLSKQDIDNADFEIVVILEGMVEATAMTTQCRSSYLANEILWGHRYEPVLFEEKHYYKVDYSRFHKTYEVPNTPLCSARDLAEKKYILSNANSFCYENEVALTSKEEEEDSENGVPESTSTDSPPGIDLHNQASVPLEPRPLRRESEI
# NADPH oxidase 1 [15] = target: T6, NADPH oxidase 1 (Homo sapiens, UniProt Q9Y5S8); experiment: Late-stage luminescence-based cell-based dose response assay to identify inhibitors of NADPH oxidase 1 (NOX1): Synthesized analogs 2.; format: functional
# T6 sequence (Q9Y5S8 whole entry): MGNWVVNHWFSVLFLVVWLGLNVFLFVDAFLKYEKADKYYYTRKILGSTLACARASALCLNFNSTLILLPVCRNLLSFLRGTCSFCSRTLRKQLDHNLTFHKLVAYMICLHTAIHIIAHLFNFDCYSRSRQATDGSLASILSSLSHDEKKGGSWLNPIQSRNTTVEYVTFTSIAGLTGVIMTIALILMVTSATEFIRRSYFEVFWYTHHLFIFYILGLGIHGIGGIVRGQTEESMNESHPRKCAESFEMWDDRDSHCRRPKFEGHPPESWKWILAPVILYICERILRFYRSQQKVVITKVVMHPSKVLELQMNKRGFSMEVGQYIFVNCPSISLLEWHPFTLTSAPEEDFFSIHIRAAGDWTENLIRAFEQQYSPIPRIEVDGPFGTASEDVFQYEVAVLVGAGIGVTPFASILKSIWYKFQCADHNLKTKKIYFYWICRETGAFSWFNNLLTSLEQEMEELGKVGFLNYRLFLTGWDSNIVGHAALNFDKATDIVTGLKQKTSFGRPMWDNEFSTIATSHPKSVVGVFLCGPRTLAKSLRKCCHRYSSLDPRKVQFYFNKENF
# [16] = target: E3 ubiquitin-protein ligase Mdm2 (Homo sapiens, UniProt Q00987); experiment: MDM2-luc reporter signal enhancers, multi-concentration potency testing, MDM2 ubiquitin-protein ligase inhibitor program, whole-cell format, luminescence detection, 384-well microplate (AID 1394); format: functional;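 note: MDM2 E3 inhibitors raise luminescence so EC50 is for signal enhancement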
# NADPH oxidase 1 [17] = target: T6, NADPH oxidase 1; format: functional, cell-based
# [18] = viability of uninfected HEp-2 cells – cell-based, HTS, cytotoxicity control for RSV inhibitor project, dose response (AID 2410); format: functional; conditions: human respiratory syncytial virus
# [19] = target: Aryl hydrocarbon receptor (Homo sapiens, UniProt P35869); experiment: Luminescence-based cell-based high throughput dose response assay for activators of the Aryl Hydrocarbon Receptor (AHR). [Related pubchem assays: 2796 (Primary screen (AHR activators in singlicate)), 2845 (Confirmation screen (AHR activators in triplicate)), 434939 (Counterscreen (PXR activators in triplicate)), 2804 (Summary (AHR activators))]; format: ADME
# Sequence of Aryl hydrocarbon receptor (P35869 whole entry): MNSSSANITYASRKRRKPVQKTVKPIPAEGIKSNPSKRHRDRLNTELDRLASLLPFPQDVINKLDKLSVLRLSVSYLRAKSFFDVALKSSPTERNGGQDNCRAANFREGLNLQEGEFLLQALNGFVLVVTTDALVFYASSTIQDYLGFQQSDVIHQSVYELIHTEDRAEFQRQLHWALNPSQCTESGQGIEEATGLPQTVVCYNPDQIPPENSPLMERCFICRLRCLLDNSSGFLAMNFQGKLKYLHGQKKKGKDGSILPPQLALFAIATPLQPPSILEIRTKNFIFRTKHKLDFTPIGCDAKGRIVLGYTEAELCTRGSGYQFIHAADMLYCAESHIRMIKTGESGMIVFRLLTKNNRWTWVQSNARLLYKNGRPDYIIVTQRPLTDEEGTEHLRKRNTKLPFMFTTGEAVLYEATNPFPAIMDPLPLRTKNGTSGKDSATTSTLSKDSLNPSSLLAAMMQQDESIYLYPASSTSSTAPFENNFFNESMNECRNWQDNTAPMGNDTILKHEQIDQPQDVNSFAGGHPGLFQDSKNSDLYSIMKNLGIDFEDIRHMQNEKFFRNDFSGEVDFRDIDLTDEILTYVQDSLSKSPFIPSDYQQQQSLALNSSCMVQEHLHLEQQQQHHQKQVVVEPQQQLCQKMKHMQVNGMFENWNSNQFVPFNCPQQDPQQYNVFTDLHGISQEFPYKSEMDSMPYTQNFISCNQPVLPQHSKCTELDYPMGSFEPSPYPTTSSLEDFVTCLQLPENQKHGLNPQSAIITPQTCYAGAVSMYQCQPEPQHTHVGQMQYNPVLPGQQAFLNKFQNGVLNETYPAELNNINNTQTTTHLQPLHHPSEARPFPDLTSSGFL
# [20] = Luminescence Cell-Based Dose Retest to Confirm Inhibitors of Cancer Stem Cells. [Related pubchem assays (depositor defined):AID2717, AID2721]; format: functional; conditions: Homo sapiens
# Genome polyprotein = Genome polyprotein (Hepatitis C virus, UniProt Q2Q167); experiment: disruption of hepatitis C core self-association – biochemical, TR-FRET, dose response (AID 2159); set-up: species or system Hepacivirus hominis;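 note: blocks dimerization of HCV core protein measured by TR-FRET between tagged core106 pairs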
# Sequence of Genome polyprotein (Q2Q167 whole entry): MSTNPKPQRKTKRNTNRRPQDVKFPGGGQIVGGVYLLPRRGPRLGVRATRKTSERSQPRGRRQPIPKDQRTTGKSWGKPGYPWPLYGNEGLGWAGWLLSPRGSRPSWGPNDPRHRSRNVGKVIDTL
# [21] = viability loss in THP-1 monocytes – THP-1 cells, cytotoxicity control for Vif-APOBEC3G degradation inhibitor project, dose response (AID 1117359); format: functional; conditions: THP-1
# [22] = target: Mitogen-activated protein kinase 10 (Homo sapiens, UniProt P53779); experiment: Dose response biochemical screening assay for inhibitors of c-Jun N-Terminal Kinase 3 (JNK3). [Related pubchem assays: 746 ]
# [23] = viability inhibitors of stage V gametocytes – luminescence, dose response (AID 1117278); format: functional, cell-based;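 note: gametocytes exposed to compound for 24 hours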
# [24] = viability loss in human Jurkat cells – cell-based, luminescence, cytotoxicity control for P. falciparum gametocyte viability project, dose response (AID 1117277); format: functional;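 note: potency reflects loss of cellular ATP meaning fewer viable cells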
# [25] = target: Sphingosine 1-phosphate receptor 2 (Homo sapiens, UniProt O95136); experiment: Dose Response Cell Based Assay for Agonists of the S1P2 Receptor of Purchased Analogues. [Related pubchem assays: 729, 843, 854, 736 ]; format: functional
# Sequence of Sphingosine 1-phosphate receptor 2 (O95136 whole entry): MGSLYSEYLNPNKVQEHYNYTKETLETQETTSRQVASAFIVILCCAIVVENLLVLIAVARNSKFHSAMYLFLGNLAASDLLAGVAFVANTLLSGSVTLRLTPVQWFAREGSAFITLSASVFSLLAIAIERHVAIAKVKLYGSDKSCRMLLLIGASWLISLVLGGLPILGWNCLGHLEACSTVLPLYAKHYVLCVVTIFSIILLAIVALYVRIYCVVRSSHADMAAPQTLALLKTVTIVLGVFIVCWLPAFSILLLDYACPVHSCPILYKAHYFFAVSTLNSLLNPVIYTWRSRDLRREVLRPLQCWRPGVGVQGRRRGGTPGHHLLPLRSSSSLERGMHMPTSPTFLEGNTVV
# [26] = M. tuberculosis growth inhibition, HTS (AID 449762); format: functional
# Oxytocin receptor = Oxytocin receptor (Homo sapiens, UniProt P30559); experiment: Fluorescence-based cell-based high throughput dose response assay for potentiators of Oxytocin Receptor (OXTR). [Related pubchem assays: 434985 (Confirmation screen (OXTR potentiators in triplicate)), 2481 (Summary (OXTR potentiators)), 2445 (Primary screen (OXTR potentiators in singlicate))]; format: functional
# [27] = target: T7, Low molecular weight phosphotyrosine protein phosphatase (Homo sapiens, UniProt P24666); experiment: inhibition of LMPTP-A enzymatic activity – biochemical, OMFP substrate, fluorescence intensity, set 2, dose response (AID 743307); format: functional
# T7 sequence (P24666 whole entry): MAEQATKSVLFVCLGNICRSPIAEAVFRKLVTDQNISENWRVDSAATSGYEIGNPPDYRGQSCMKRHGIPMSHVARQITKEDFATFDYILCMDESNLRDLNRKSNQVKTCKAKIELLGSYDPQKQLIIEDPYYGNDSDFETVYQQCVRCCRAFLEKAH
# [28] = target: T7, Low molecular weight phosphotyrosine protein phosphatase; experiment: inhibition of human LMPTP enzyme activity – biochemical, absorbance, pNPP substrate, LMPTP-A isoform, set 2, orthogonal assay, dose response (AID 743308); format: functional
# Sequence of Glyceraldehyde-3-phosphate dehydrogenase (P04406 whole entry): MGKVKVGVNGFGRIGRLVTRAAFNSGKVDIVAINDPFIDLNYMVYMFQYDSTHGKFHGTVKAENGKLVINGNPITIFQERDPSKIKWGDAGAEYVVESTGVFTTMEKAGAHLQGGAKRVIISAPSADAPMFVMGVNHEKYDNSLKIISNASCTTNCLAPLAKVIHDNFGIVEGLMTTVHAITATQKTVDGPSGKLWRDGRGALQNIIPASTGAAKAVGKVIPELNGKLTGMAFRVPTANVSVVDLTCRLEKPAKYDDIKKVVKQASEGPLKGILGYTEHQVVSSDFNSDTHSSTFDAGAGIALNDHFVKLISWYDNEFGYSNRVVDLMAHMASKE
smiles,measurement,setting,value
CN1CCN(C2=CC(=O)N(c3ccc(Cl)cc3)C2=O)CC1,IC50,[1],> 100 µM (not active)
same,IC50,Bcl-2-related protein A1 [2],> 100 µM (not active)
same,IC50,Bcl-2-related protein A1 [3],> 100 µM (not active)
O=C(O)CCn1c(SCc2cccc3ccccc23)nc2ccccc21,IC50,[4],36 µM (active)
Cc1c(C)n(C(=O)CSc2nc3ccccc3[nH]2)c2ccccc12,IC50,[5],38.2 µM (active)
same,IC50,[6],3.37 µM (active)
same,IC50,[7],0.603 µM (active)
same,IC50,[8],9.91 µM (active)
same,IC50,[9],1.81 µM (active)
same,IC50,[10],8.33 µM (active)
same,IC50,Protein Tat,> 100 µM (active)
O=C(/C=C/c1ccc(Cl)c([N+](=O)[O-])c1)Nc1ccc(N2CCCC2)cc1,IC50,[11],20.9 µM (not active)
same,IC50,Bcl-2-like protein 1,> 109 µM (not active)
same,IC50,[12],> 54 µM (active)
same,IC50,[6],3.29 µM (active)
O=c1c2cc([N+](=O)[O-])ccc2nc2n1CCC2,CC50,Vero,> 100 µM (active)
Brc1ccc(-c2nnc3sc(CNC4CCCC4)cn23)cc1,IC50,[13],> 100 µM (not active)
CC1=C(\C=C/C(C)=C/C=C\C(C)=C\C(=O)Nc2ccc(O)cc2)C(C)(C)CCC1,AC50,Cytochrome P450 2C19,31.6 µM (inconclusive)
same,AC50,Cytochrome P450 2C9,7.94 µM (inconclusive)
COc1ccc(CNCc2ccccc2Cl)cc1,IC50,[14],13.3 µM (active)
ClCCN1c2ccccc2Sc2ccc(Cl)cc21,IC50,NADPH oxidase 1 [15],> 50 µM (not active)
COc1ccc(-c2nsc(SCC(=O)Nc3ccc4c(c3)OCO4)n2)cc1,EC50,[16],0.19 µM (not active)
COc1ccc(NC(=O)Nc2ccc3c(c2)CCN3C(C)=O)cc1,IC50,NADPH oxidase 1 [17],> 17 µM (not active)
COc1cc2c(cc1NC(=O)Nc1ccc(C)cc1)oc1ccccc12,CC50,[18],26.4 µM (active)
same,EC50,[19],1.47 µM (active)
same,AC50,[20],1.88 µM (active)
CN(CC(=O)Nc1cccc(F)c1)C(=O)c1cccc(-n2cccc2)c1,IC50,Genome polyprotein,> 49.8 µM (not active)
same,IC50,[6],6.19 µM (active)
same,CC50,[21],> 40 µM (active)
COc1cccc(C2=NOC(C(=O)Nc3cc(OC)c(OC)c(OC)c3)C2)c1 (configuration not stated),IC50,[22],2.02 µM (active)
O=C(Cn1cnc2ccccc2c1=O)Nc1ccc(S(=O)(=O)N2CCOCC2)cc1,IC50,[23],> 109 µM (inactive)
same,IC50,[24],> 83.3 µM (inactive)
CCNC(=O)CN(CC)CC(=O)c1cc(C)n(Cc2ccccc2)c1C,EC50,[25],> 30 µM (not active)
CC1(CCc2ccccc2)N=C(S)N(c2ccc(Cl)cc2)N1 (configuration not stated),IC50,[26],> 100 µM (active)
Cc1cc(C)n(-c2cc(C(C)(C)C)nc3c(-c4ccc(Cl)cc4)cnn23)n1,EC50,Oxytocin receptor,> 29.9 µM (not active)
c1ccc(-c2cc(NCCN3CCOCC3)c3ccccc3n2)cc1,IC50,[27],2.13 µM (active)
same,IC50,[28],3.28 µM (active)
